Measurements from patent US4320052A, “Derivatives of A-30912A nucleus” (Eli Lilly and Company, priority 1980, dated 1982).
Values after ≈ are worked out from the molar mass of the structure shown. Values joined by “and” are separate entries in the source; they are usually repeats but may differ in a detail not shown here. Equal entries are not always repeated. Where two headings read alike, the source gives them in different places. Numbered stars: 1 amine (or outer) side, 2 acyl side, 3 side chain; on linkers, the order of the positions; unused ones are H or OH. Bridge positions count the residues as written; N and C are the ends. Square brackets hold non-standard residues; d marks the D form. Peptide text beside a SMILES is read from it. * marks the point of attachment. Orn(4R-OH,5R-OH) = O=C([C@H](C[C@@H](O)[C@@H](O)N[*:3])N[*:1])[*:2]; hTyr(3S-OH,4S-OH) = N[C@H](C(=O)O)[C@H](O)[C@@H](O)c1ccc(O)cc1; Pro(3S-OH,4S-Me) = C[C@H]1CN[C@H](C(=O)O)[C@H]1O; Docosanoyl = CCCCCCCCCCCCCCCCCCCCCC(=O)*; Nonadecanoyl = CCCCCCCCCCCCCCCCCCC(=O)*; Arachidoyl = CCCCCCCCCCCCCCCCCCCC(=O)*; X2 = CCCCC/C=C/C/C=C/CCCCCCCC(=O)*; Hyp = O=C(O)[C@@H]1C[C@@H](O)CN1; Tridecanoyl = CCCCCCCCCCCCC(=O)*

Tests used:
[1] = tested on: Saccharomyces pastoranius X-52; test: Agar plate disc diffusion test (zone of inhibition); type: cell-based, Saccharomyces pastorianus
Protocol: (§1) Tables II and III give the results of the testing in vitro of the compounds of Examples 1-16 by agar-plate disc-diffusion methods. In Table II activity is measured by the size (diameter in mm.) of the observed zone of inhibition of the microorganism produced by the test compound. In Table III, activity is measured by the minimal inhibitory concentration (MIC) of the substance (μg/dic) required to inhibit growth of the test organism. Table IV gives the results of the testing in vitro of the n-tridecanoyl derivative of A30912A nucleus (Formula III, R is n-C12 H25) against five strains of Candida albicans by the agar dilution method. In […] activity is measured by the minimal inhibitory concentration (MIC) of the substance (μg/ml) required to inhibit the test organism.
(§2) ^(a) Compounds were tested as suspension in methanol at a
(§3) concentration of 1 mg/ml. by dipping a 7mm disc into the suspension and
(§4) placing it on the agar surface. Incubation: 24-48 hours at 25-37°

Candida albicans A-26 [2] = test: as above; type: cell-based; conditions: suspension in methanol 1 mg/ml, 7mm disc; 24-48 hours at 25-37° C.
Protocol: as §1, §2, §3, §4

Neurospora crassa 846 = test: as above; type: cell-based
Protocol: as §1, §2, §3, §4

[3] = tested on: Trichophyton mentagraphytes A-23; test: as above; type: cell-based, Trichophyton mentagrophytes
Protocol: as §1, §2, §3, §4

Candida albicans A-26 [4] = test: Agar plate disc diffusion test (MIC); type: cell-based; conditions: 0.01M sodium borate pH 7.5; 20 μg/disc top, twofold dilutions; 24 hours, 30° C.
Protocol: as §1
(§5) *Compounds were suspended in 0.01M sodium borate solution, pH 7.5. The
(§6) compounds were tested at 20 μg/disc at top level and at twofold
(§7) dilutions until end points were reached. Incubation: 24 hours; 30°

[5] = tested on: Trichophyton mentagrophytes #6; test: Agar plate disc diffusion test (MIC); type: cell-based; conditions: 0.01M sodium borate pH 7.5; 20 μg/disc top, twofold dilutions; 24 hours, 30° C.
Protocol: as §1, §5, §6, §7

Candida albicans = test: Agar dilution test against strains of Candida albicans (MIC); type: cell-based
Protocol: as §1

Candida albicans A-26 [6] = test: In vivo activity against Candida albicans A-26 infection in mice; design: species or system mice infected with Candida albicans A-26; conditions: Candida albicans, A26, sc, 24 h; for minimal effective dose: read-out: Lowest Active Dose
Protocol: The results of in vivo tests to evaluate the effectiveness of the compound of Examples 1-16 against an infection caused by Candida albicans A-26 in mice are given in Table V, where activity is measured by the ED50 value (the dose in mg/kg. required to cure 50% of the test animals). Where an ED50 value was not obtained, activity is indicated by the lowest dose at which a significant anti-fungal effect is observed. In this test, groups of male albino mice (specific pathogen free), weighing 18 to 20 grams, are infected intravenously with Candida albicans A-26. The animals are X-irradiated 24 hours prior to infection at about 50 roentgens per minute for 8 minutes (400 total dose) to reduce immune responses to the infecting organism. At 0, 4, and 24 hours post infection each group of mice is given graded doses subcutaneously of the test compound as a suspension in 33% polyethylene glycol-water. The day of death for each animal is recorded.
mg/kg. Dosages given 0, 4, and 24 hours post injection as suspension of
test compound in 30% PEG--H2 O. Number of mice receiving test
compounds at each dosage level; 6 mice per group. Number of mice in
control (untreated) group: 10 mice per group.
**As measured by increase in survival time of treated animals versus
control, calculated by method of Reed v Mueuch, American J. Hygiene, 27,

[7] = Blood levels after oral administration in mice (bioassay vs. Aspergillus montevidensis A35137); conditions: mouse, in vivo; for concentration at 4 h: po; for Blood Levels After Oral Administration In Mice: 240 min
Text: determined by bioassay vs. Aspergillus montevidensis A35137.

[8] = Toxicity in dog, intravenous administration; type: in vivo; conditions: 100 mg/kg per day for five days
[9] = X52, suspension in methanol 1 mg/ml, 7mm disc, 24-48 hours at 25-37° C., read-out: Size of zone of inhibition, Saccharomyces pastoranius X-52
[10] = Neurospora crassa, 846, suspension in methanol 1 mg/ml, 7mm disc, *distinct measurable zone of inhibition with regrowth of organism around disc, read-out: Size of zone of inhibition, Neurospora crassa 846 (*)
[11] = A23, suspension in methanol 1 mg/ml, 7mm disc, 24-48 hours at 25-37° C., read-out: Size of zone of inhibition, Trichophyton mentagraphytes A-23
[12] = mice, subcutaneous, schedule A (40, 20, 15, and 10 mg/kg), 0, 4, 24 hours, increase in survival time, read-out: ED50
[13] = mice, subcutaneous, schedule A (40, 20, 15, and 10 mg/kg), 0, 4, 24 hours
[14] = Neurospora crassa, 846, suspension in methanol 1 mg/ml, 7mm disc, 24-48 hours at 25-37° C., read-out: Size of zone of inhibition, Neurospora crassa 846

Compound | Size of zone of inhibition, Candida albicans A-26 (Candida albicans A-26 [2]) | MIC, Candida albicans A-26 (Candida albicans A-26 [4]) | MIC, Trichophyton mentagrophytes #6 [5] | zone of inhibition at 1000 µg/mL [1, 9] | zone of inhibition at 1000 µg/mL (Neurospora crassa 846; [10]) | zone of inhibition at 1000 µg/mL [3, 11] | ED50 (Candida albicans A-26 [6]; [12]) | minimal effective dose (Candida albicans A-26 [6]; [13]) | concentration at 4 h ([7]; 416 mg/kg) | zone of inhibition at 1000 µg/mL (Neurospora crassa 846; [14]) | Blood Levels After Oral Administration In Mice [7] | other results
CCCCCCCCCCCCC(=O)N[C@H]1C[C@@H](O)[C@@H](O)NC(=O)[C@@H]2[C@@H](O)[C@@H](C)CN2C(=O)[C@H]([C@@H](C)O)NC(=O)[C@H]([C@H](O)[C@@H](O)c2ccc(O)cc2)NC(=O)[C@@H]2C[C@@H](O)CN2C(=O)[C@H]([C@@H](C)O)NC1=O [Example 2, n-Tridecanoyl Derivative of A-30912A Nucleus] (Tridecanoyl-[Orn(4R-OH,5R-OH)]T[Hyp][hTyr(3S-OH,4S-OH)]T[Pro(3S-OH,4S-Me)]; lactam 1-C) | 30 mm | 0.625 μg/disc | 0.039 μg/disc |  |  |  |  |  |  |  |  | zone of inhibition at 1000 µg/mL ([1]; X52, read-out: Size of zone of inhibition, Saccharomyces pastoranius X-52): 21 mm; zone of inhibition at 1000 µg/mL (Neurospora crassa 846; Neurospora crassa, 846, read-out: Size of zone of inhibition, Neurospora crassa 846 (*)): 32 mm; zone of inhibition at 1000 µg/mL ([3]; A23, read-out: Size of zone of inhibition, Trichophyton mentagraphytes A-23 (*)): 60 mm; MIC (Candida albicans; read-out: MIC, Candida albicans A26): 0.312 µg/mL (≈ 0.314 µM); MIC (Candida albicans; strain SBH 16, agar dilution, read-out: MIC, Candida albicans SBH 16): 0.625 µg/mL (≈ 0.629 µM); MIC (Candida albicans; strain SBH 28, agar dilution, read-out: MIC, Candida albicans SBH 28): 0.625 µg/mL (≈ 0.629 µM); MIC (Candida albicans; strain SBH 29, agar dilution, read-out: MIC, Candida albicans SBH 29): 0.625 µg/mL (≈ 0.629 µM); MIC (Candida albicans; strain SBH 31, agar dilution, read-out: MIC, Candida albicans SBH 31): 0.625 µg/mL (≈ 0.629 µM); ED50 (Candida albicans A-26 [6]): 34 mg/kg; minimal effective dose (Candida albicans A-26 [6]): 20 mg/kg; concentration at 4 h ([7]; four hours after 416 mg/kg by gavage, suspension in 33% PEG 400-H2O, read-out: Blood Levels After Oral Administration In Mice): 100 ng/mL; SGPT levels [8]: increased SGPT levels; hemolysis [8]: evidence of hemolysis; outward signs of toxicity [8]: no outward signs of toxicity
CCCCC/C=C/C/C=C/CCCCCCCC(=O)N[C@H]1C[C@@H](O)[C@@H](O)NC(=O)[C@@H]2[C@@H](O)[C@@H](C)CN2C(=O)[C@H]([C@@H](C)O)NC(=O)[C@H]([C@H](O)[C@@H](O)c2ccc(O)cc2)NC(=O)[C@@H]2C[C@@H](O)CN2C(=O)[C@H]([C@@H](C)O)NC1=O [Example 10] (X2-[Orn(4R-OH,5R-OH)]T[Hyp][hTyr(3S-OH,4S-OH)]T[Pro(3S-OH,4S-Me)]; lactam 1-C) | 24 mm | 0.156 μg/disc | < 0.039 μg/disc | 24 mm | 26 mm | 36 mm | 16 mg/kg | 10 mg/kg | 610 ng/mL |  |  | 
CCCCCCCCCCCCCCCCCCCC(=O)N[C@H]1C[C@@H](O)[C@@H](O)NC(=O)[C@@H]2[C@@H](O)[C@@H](C)CN2C(=O)[C@H]([C@@H](C)O)NC(=O)[C@H]([C@H](O)[C@@H](O)c2ccc(O)cc2)NC(=O)[C@@H]2C[C@@H](O)CN2C(=O)[C@H]([C@@H](C)O)NC1=O [Example 13] (Arachidoyl-[Orn(4R-OH,5R-OH)]T[Hyp][hTyr(3S-OH,4S-OH)]T[Pro(3S-OH,4S-Me)]; lactam 1-C) | 16 mm | 5.0 μg/disc | 5 μg/disc | 18 mm |  | 16 mm | 40 mg/kg | 10 mg/kg |  | 13 mm | 0 ng/mL | 
CCCCCCCCCCCCCCCCCCCCCC(=O)N[C@H]1C[C@@H](O)[C@@H](O)NC(=O)[C@@H]2[C@@H](O)[C@@H](C)CN2C(=O)[C@H]([C@@H](C)O)NC(=O)[C@H]([C@H](O)[C@@H](O)c2ccc(O)cc2)NC(=O)[C@@H]2C[C@@H](O)CN2C(=O)[C@H]([C@@H](C)O)NC1=O [Example 15] (Docosanoyl-[Orn(4R-OH,5R-OH)]T[Hyp][hTyr(3S-OH,4S-OH)]T[Pro(3S-OH,4S-Me)]; lactam 1-C) | 12 mm | 5.0 μg/disc | 5 μg/disc | 19 mm |  | 20 mm | > 40 mg/kg | > 40 mg/kg |  | 15 mm | 0 ng/mL | 
CCCCCCCCCCCCCCCCCCC(=O)N[C@H]1C[C@@H](O)[C@@H](O)NC(=O)[C@@H]2[C@@H](O)[C@@H](C)CN2C(=O)[C@H]([C@@H](C)O)NC(=O)[C@H]([C@H](O)[C@@H](O)c2ccc(O)cc2)NC(=O)[C@@H]2C[C@@H](O)CN2C(=O)[C@H]([C@@H](C)O)NC1=O [Example 12] (Nonadecanoyl-[Orn(4R-OH,5R-OH)]T[Hyp][hTyr(3S-OH,4S-OH)]T[Pro(3S-OH,4S-Me)]; lactam 1-C) | 19 mm | 2.5 μg/disc and 5.0 μg/disc | 1.25 μg/disc and 0.625 μg/disc | 17 mm | 18 mm |  |  | ≥ 5 mg/kg | 54000 ng/mL |  |  | zone of inhibition at 1000 µg/mL ([3]; A23, suspension in methanol 1 mg/ml, 7mm disc, *distinct measurable zone of inhibition with regrowth of organism around disc, read-out: Size of zone of inhibition, Trichophyton mentagraphytes A-23 (*)): 22 mm
